Measured values reported in patent US8530522B2, “Organic compounds” (Novartis AG, priority 2008, dated 2013).
Structures can show the parent of a compound that is named as a salt.

Assays:
[1] = Storage of Form I samples at elevated temperature and 75% r.h.; assay type: physicochemical
[2] = Water sorption/desorption isotherms (Dynamic Vapor System DVS-1); assay type: physicochemical
Procedure: Sorption/desorption isotherms were measured using the Dynamic Vapor System (DVS-1). Measurement was carried out at 25° C. and 40° C.

| SMILES | solid form after storage ([1]; stored 1 month at 60° C. and 75% r.h.) | solid form after storage ([1]; stored 1 month at 80° C. and 75% r.h.) | relative humidity of first water uptake, water sorption isotherm ([2]; isotherm recorded at 25° C.) | relative humidity of first significant water uptake, water sorption isotherm ([2]; isotherm recorded at 40° C.) |
| --- | --- | --- | --- | --- |
| CCCCCCCCc1ccc(CCC(N)(CO)CO)cc1 [Form I] | conversion to the hydrate form | conversion to the hydrate form |  |  |
| CCCCCCCCc1ccc(CCC(N)(CO)CO)cc1 [FTY720 HCl, 2-amino-2-[2-(4-octylphenyl)ethyl]propane-1,3-diol hydrochloride salt] |  |  | 90 % r.h. | 80 % r.h. |
